59 compounds from patent US20250214977A1, “STAT6 INHIBITORS AND USES THEREOF” (Kymera Therapeutics, Inc., priority 2024, published 2025) can be followed below.

Structures are written as SMILES. pIC50: −log10 of the molar value. Where only a bound is given, the exact number is not on record here.

The pIC50 is the negative decadic logarithm of the IC50, by convention in mol/L.

For this test, the system named is Phosphorylation of STAT6 in human PBMC (CD19+ B cells). The test can be described thus: Phosphorylated STAT6 (pSTAT6) flow cytometry assay in human PBMC, IL-4 stimulated. It counts as cell-based. As to conditions: compound 1 hour, 1 ng/ml IL-4 for 15 minutes, read-out: STAT6 IL4 pSTAT6 assay in PBMC: Average IC50. On the procedure: Example 2. Phosphorylated STAT6 (pSTAT6) Flow Cytometry Assay in Human PBMC
Phosphorylation of STAT6 in human PBMC was quantitatively measured using flow cytometry technology. Human PBMC were seeded in 96-well plates with a density of 0.3 to 0.5 million cells per well in 100 μl fresh media. Compounds were then added to the assay plates with a final top concentration of up to 30 μM in a 1:3 dilution series with total of 9 doses. The assay plates were incubated for 1 hour at 37° C. under 5% CO2. The cells were then stimulated with 1 ng/ml of IL-4 (R&D Systems, Cat #6507-IL) for 15 minutes, followed by fixation for 30 minutes at 4° C. Cells were spun down at 350 g for 5 minutes. The supernatant was removed and cells were washed once with FACS buffer. Cells were permeabilized with 90% MeOH/H2O for 30 minutes at 4° C., followed by one wash with FACS buffer. Non-specific binding were blocked with human Fc for 1 hour at 4 C, followed by one wash with FACS buffer. AF488 conjugated pSTAT6 antibody (BD Biosciences, Cat #612600, 1:100 dilution) and PE conjugated CD19 antibody (BD Biosciences, Cat #341103, 1:50 dilution) diluted in 100 μl FACS buffer was added to each well with overnight incubation at 4° C. Cells were then washed once with FACS buffer and resuspended in 200 μl of FACS buffer for flow cytometry to quantify pSTAT6 in CD19+ B cells. The data was analyzed by GraphPad Prism and the dose dependent pSTAT6 inhibition was fit using the four-parameter inhibitor vs. response nonlinear regression.
In general terms: In flow cytometry, cells or beads pass a laser one at a time.
Consider `CN(C)C(=O)c1cc2ccc(C3=CCCN(C(=O)c4cnn(C)c4C(F)(F)F)C3)cc2[nH]1` [Example I-62], for which the pIC50 is 4.00 to 5.00. `CN(C)C(=O)c1cc2cc(C3=CCCN(C(=O)CCc4ccccc4)C3)ccc2o1` [Example I-312]: the pIC50 was under 4.00.

On to `CC(=O)NCc1ccccc1-c1ccccc1CC(=O)N1CCC=C(c2ccc3oc(C(=O)N(C)C)cc3c2)C1` [Example I-219], for which the pIC50 is under 4.00.

In the case of `CNc1ccc(-c2cc(C3=CCCN(C(=O)CCn4ccnn4)C3)cc3[nH]c(C(=O)N(C)C)cc23)c(OC)c1` [Example I-117], the pIC50 was over 7.00. Take `CC(=O)NC(C(=O)N1CCC=C(c2ccc3cc(C(=O)N(C)C)[nH]c3c2)C1)c1cccc(Cl)c1` (centres unmarked) [Example I-77]: the pIC50 is 4.00 to 5.00. Consider `CN(C)C(=O)c1cc2ccc(C3=CCCN(C(=O)c4ccccc4C(=O)c4ccc(F)cc4)C3)cc2[nH]1` [Example I-108], for which the pIC50 was under 4.00.

With `CNc1ccc(-c2cc(C3=CCCN(C(=O)CCn4ccnn4)C3)cc3[nH]c(C(=O)N(C)C)cc23)cc1` [Example I-113], the pIC50 was over 7.00. The same measure for `CN(C)C(=O)c1cc2ccc(C3=CCCN(C(=O)CCn4ccnn4)C3)nc2[nH]1` [Example I-196]: 4.00 to 5.00; for `CNS(=O)(=O)c1cccc(C(=O)N2CCC=C(c3ccc4cc(C(=O)N(C)C)[nH]c4c3)C2)c1` [Example I-70]: under 4.00; for `CN(C)C(=O)c1cc2ccc(C3=CCCN(C(=O)c4ccccc4CSc4ccccc4)C3)cc2[nH]1` [Example I-92]: 4.00 to 5.00.

`CN(C)C(=O)c1cc2cc(C3=CCCN(C(=O)CCn4ccnn4)C3)cc(-c3ccc(O)cc3)c2o1` [Example I-205]: the pIC50 was 6.00 to 7.00. As for `CN(C)C(=O)c1cc2ccc(C3=CCCN(C(=O)C4CC(=O)N(Cc5ccccc5)C4)C3)cc2[nH]1` (centres unmarked) [Example I-88], the pIC50 was 4.00 to 5.00. With `CN(C)C(=O)c1cc2cc([C@@H]3CC[C@H](CO)N(C(=O)CCn4ccnn4)C3)ccc2o1` (single isomer, unassigned) [Example I-156], the pIC50 was under 4.00. On to `CN(C)C(=O)c1cc2cc(C3=CCCN(C(=O)CCc4ccccn4)C3)ccc2[nH]1` [Example I-200], for which the pIC50 is under 4.00. In the case of `CN(C)C(=O)c1cc2cc(C3=CCCN(C(=O)C4Cc5c(cccc5OCCN)CN4C=O)C3)ccc2o1` (centres unmarked) [Example I-171] it was 4.00 to 5.00; in that of `CN(C)C(=O)c1cc2cc(C3=CCCN(C(=O)CCn4ccnn4)C3)ncc2[nH]1` [Example I-224], 4.00 to 5.00. `CN(C)C(=O)c1cc2ccc(C3=CCCN(C(=O)C4CC4c4ccn(C)n4)C3)cc2[nH]1` (centres unmarked) [Example I-321]: the pIC50 is 4.00 to 5.00.

For `CN(C)C(=O)c1cc2cc(C3=CCCN(C(=O)Cn4nnc5ccccc54)C3)ccc2o1` [Example I-254], the pIC50 was under 4.00. In the case of `CN(C)C(=O)c1cc2ccc(C3=CCCN(C(=O)C(O)Cc4ccccc4)C3)cc2[nH]1` (centres unmarked) [Example I-52] it was 4.00 to 5.00.

Regarding `CN(C)C(=O)c1cc2ccc(C3=CCCN(C(=O)[C@@H](N)Cc4cccc(F)c4)C3)cc2[nH]1` [Example I-65], the pIC50 is under 4.00. In the case of `CNc1ccc(-c2cc(C3=CCCN(C(=O)CCn4ccnn4)C3)cc3[nH]c(C(=O)N(C)C)cc23)c(F)c1` [Example I-115] it was 5.00 to 6.00; in that of `CN(C)C(=O)c1cc2cc(C3=CCCN(C(=O)CCc4c[nH]c5ccccc45)C3)ccc2o1` [Example I-300], under 4.00.

Take `CN(C)C(=O)c1cc2cc(C3=CCCN(C(=O)C4Cc5c(cccc5C5CCNCC5)CN4C=O)C3)ccc2o1` (centres unmarked) [Example I-181]: the pIC50 was under 4.00. Take `CN(C)C(=O)c1cc2cc(C3=CCCN(C(=O)Cc4nc5ccccc5s4)C3)ccc2o1` [Example I-221]: the pIC50 is under 4.00. The same measure for `CN(C)C(=O)c1nc2ccc(C3=CCCN(C(=O)CCn4ccnn4)C3)cc2s1` [Example I-227]: 4.00 to 5.00.

`CN(C)C(=O)c1cc2cc(C3=CCCN(C(=O)CCc4cccc5ccccc45)C3)ccc2o1` [Example I-291]: the pIC50 is under 4.00. Take `CC(=O)N1Cc2ccccc2CC1C(=O)N1CCC=C(c2ccc3oc(C(=O)N(C)C)cc3c2)C1` (centres unmarked) [Example I-232]: the pIC50 is under 4.00. With `O=C(CCn1ccnn1)N1CCC=C(c2c[nH]c3cc(-n4ccccc4=O)ccc23)C1` [Example I-277], the pIC50 was under 4.00. As for `CN(C)C(=O)c1cn2cc(C3=CCCN(C(=O)CCn4ccnn4)C3)ccc2n1` [Example I-241], the pIC50 is under 4.00. For the compound `CN(C)C(=O)c1cc2cc(C3=CCCN(C(=O)CCn4ccnn4)C3)cc(CN3CCCCC3)c2o1` [Example I-185], the pIC50 is 4.00 to 5.00. In the case of `CN(C)C(=O)c1cc2ccc(C3=CCCN(C(=O)[C@@H]4C[C@H]4c4ccn(C)n4)C3)cc2[nH]1` [Example I-11] it was 4.00 to 5.00; in that of `CN(C)C(=O)c1nc2cc(C3=CCCN(C(=O)CCc4ccccn4)C3)ccc2[nH]1` [Example I-199], under 4.00.

In the case of `CN(C)C(=O)c1cc2ccc(C3=CCCN(C(=O)C(CC4CC4)N4Cc5ccccc5C4=O)C3)cc2[nH]1` (centres unmarked) [Example I-104], the pIC50 is under 4.00.

As for `CN(C)C(=O)c1cc2cc(C3=CCCN(C(=O)CCc4nncs4)C3)ccc2o1` [Example I-147], the pIC50 is under 4.00. On to `CN(C)C(=O)c1cc2ccc(C3=CCCN(C(=O)[C@@H]4C[C@H](c5ccccc5)CN4)C3)cc2[nH]1` [Example I-76], for which the pIC50 is under 4.00.

Take `CN(C)C(=O)c1cc2ccc(C3=CCCN(C(=O)[C@@H](Cn4ccnn4)c4cccc(O)c4)C3)cc2[nH]1` [Example I-122]: the pIC50 is under 4.00. Take `CN(C)C(=O)c1cc2ccc(C3=CCCN(C(=O)c4snnc4C4CC4)C3)cc2[nH]1` [Example I-143]: the pIC50 is under 4.00.

As for `CN(C)C(=O)c1cc2ccc(C3=CCCN(C(=O)CCc4ccno4)C3)cc2[nH]1` [Example I-19], the pIC50 was under 4.00. In the case of `CC(=O)N1CCN(c2cc(C3=CCCN(C(=O)CCn4ccnn4)C3)cc3cc(C(=O)N(C)C)oc23)CC1` [Example I-207], the negative logarithm of the IC50 (pIC50) was under 4.00. Consider `CN(C)C(=O)c1cc2ccc(C3=CCCN(C(=O)OCn4ccnn4)C3)cc2[nH]1` [Example I-120], for which the pIC50 is under 4.00.

As for `CC(=O)N1Cc2ccccc2CC1C(=O)N1CCC=C(c2ccc3oc(C(=O)N(C)C)cc3c2)C1` (centres unmarked) [Example I-170], the pIC50 was under 4.00. Regarding `CN(C)C(=O)c1cc2cc(C3=CCCN(C(=O)Cc4ccncc4)C3)ccc2o1` [Example I-279], the pIC50 is under 4.00. `CN(C)C(=O)c1cc2cc(C3=CCCN(C(=O)CCc4nccc5ccccc45)C3)ccc2o1` [Example I-206]: the pIC50 was under 4.00. In the case of `CN(C)C(=O)c1cc2ccc(C3=CCCN(C(=O)C4CS(=O)(=O)C4)C3)cc2[nH]1` [Example I-163] it was under 4.00.

As for `CN(C)C(=O)c1cc2ccc(C3=CCCN(C(=O)COc4ccc(C(=O)O)cc4)C3)cc2[nH]1` [Example I-67], the pIC50 was 4.00 to 5.00. Consider `CN(C)C(=O)c1cc2cc(C3=CCCN(C(=O)CCc4nc5ccccc5s4)C3)ccc2o1` [Example I-237], for which the pIC50 was under 4.00. Take `CN(C)C(=O)c1cc2c(-c3ccc(O)cc3)cc(C3=CCCN(C(=O)CCn4ccnn4)C3)cc2[nH]1` [Example I-22]: the pIC50 was 6.00 to 7.00.

On to `CN(C)C(=O)c1cc2cc(C3=CCCN(C(=O)CCn4nnc5ccccc54)C3)ccc2o1` [Example I-217], for which the pIC50 is under 4.00. `CN(C)C(=O)c1cc2ncc(C3=CCCN(C(=O)CCn4ccnn4)C3)cc2[nH]1` [Example I-194]: the pIC50 is under 4.00. Turning to `Cc1cnnn1CCC(=O)N1CCC=C(c2ccc3cc(C(=O)N(C)C)[nH]c3c2)C1` [Example I-12], the pIC50 is 4.00 to 5.00. In the case of `CN(C)C(=O)c1cc2cc(C3=CCCN(C(=O)C4c5ccccc5CCN4C)C3)ccc2o1` (centres unmarked) [Example I-208] it was under 4.00. In the case of `Cc1c(S(C)(=O)=O)ccc(C(=O)N2CCC=C(c3ccc4cc(C(=O)N(C)C)[nH]c4c3)C2)c1Cl` [Example I-138] it was under 4.00; in that of `CN(C)C(=O)c1cc2ccc(C3=CCCN(C(=O)c4cc5occc5n4-c4ccccc4)C3)cc2[nH]1` [Example I-102], 4.00 to 5.00.

For the compound `CN(C)C(=O)c1cc2ccc(C3=CCCN(C(=O)CCn4ccnn4)C3)cn2n1` [Example I-298], the pIC50 is under 4.00. On to `CN(C)C(=O)c1cc2ccc(C3=CCCN(C(=O)CCS(=O)(=O)c4ccccc4)C3)cc2[nH]1` [Example I-66], for which the pIC50 is 5.00 to 6.00. In the case of `CN(C)C(=O)c1cc2ccc(C3=CCCN(C(=O)CCc4ccon4)C3)cc2[nH]1` [Example I-20], the pIC50 is under 4.00. For `CN(C)C(=O)c1cc2ccc(C3=CCCN(C(=O)c4ccnnc4O)C3)cc2[nH]1` [Example I-146], the pIC50 is under 4.00.

Regarding `CN(C)C(=O)c1cc2ccc(C3=CCCN(C(=O)Cn4ccccc4=O)C3)cc2[nH]1` [Example I-316], the pIC50 was under 4.00. Turning to `CN(C)C(=O)c1cc2cc(C3=CCCN(C(=O)Cc4ccc5nccnc5c4)C3)ccc2o1` [Example I-297], the pIC50 was under 4.00.
